The target in data set [1] is T1, Peroxisome proliferator-activated receptor alpha (Homo sapiens, UniProt Q07869).
T1 sequence (Q07869 whole entry): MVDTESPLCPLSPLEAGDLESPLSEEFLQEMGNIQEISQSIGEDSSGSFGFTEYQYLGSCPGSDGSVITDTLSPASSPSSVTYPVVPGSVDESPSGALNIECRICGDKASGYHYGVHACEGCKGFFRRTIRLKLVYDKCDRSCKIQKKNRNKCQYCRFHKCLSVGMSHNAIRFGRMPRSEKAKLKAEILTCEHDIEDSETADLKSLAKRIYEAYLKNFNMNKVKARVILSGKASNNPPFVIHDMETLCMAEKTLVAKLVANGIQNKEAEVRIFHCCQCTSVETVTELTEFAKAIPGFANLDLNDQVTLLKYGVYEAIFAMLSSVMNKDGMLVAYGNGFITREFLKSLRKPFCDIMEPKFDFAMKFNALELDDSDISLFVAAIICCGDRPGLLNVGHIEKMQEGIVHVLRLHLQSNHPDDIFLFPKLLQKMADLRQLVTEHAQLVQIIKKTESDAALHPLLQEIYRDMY
Put plainly: Binding affinity at PPAR alpha receptor.

The nature of data set [2]: Bile excretion of compound in bile duct-cannulated orally dosed cynomolgus monkey within 48 hrs. The class given is ADME, organism-based, Macaca fascicularis. Particulars: po, read-out: Activity.
Data set [3] deals with T2, Peroxisome proliferator-activated receptor gamma (Homo sapiens, UniProt P37231).
T2 sequence (P37231 whole entry): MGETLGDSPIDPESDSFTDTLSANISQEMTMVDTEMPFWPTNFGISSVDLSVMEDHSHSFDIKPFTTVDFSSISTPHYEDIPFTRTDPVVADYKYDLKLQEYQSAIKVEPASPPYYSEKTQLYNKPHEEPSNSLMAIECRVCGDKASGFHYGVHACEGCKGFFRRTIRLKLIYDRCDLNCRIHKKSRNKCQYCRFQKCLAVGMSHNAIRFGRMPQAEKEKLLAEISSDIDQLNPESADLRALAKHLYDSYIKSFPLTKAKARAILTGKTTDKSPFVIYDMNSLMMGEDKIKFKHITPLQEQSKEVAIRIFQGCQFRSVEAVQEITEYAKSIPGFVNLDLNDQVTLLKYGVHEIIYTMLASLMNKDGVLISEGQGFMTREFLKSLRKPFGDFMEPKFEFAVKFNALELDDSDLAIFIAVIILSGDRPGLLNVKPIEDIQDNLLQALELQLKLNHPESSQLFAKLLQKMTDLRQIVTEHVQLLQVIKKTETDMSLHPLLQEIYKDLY
Put plainly: Binding affinity at PPAR gamma receptor.

For data set [4], the target named is T3, Peroxisome proliferator-activated receptor alpha (Homo sapiens) (UniProt Q07869).
T3 sequence (whole entry): T1 sequence (Q07869 whole entry)
Briefly: (§1) Agonist activity at PPAR alpha in human HEK cells by transactivation assay. The class given is functional, cell-based. As to conditions: HEK293.

The target in data set [5] is T1, Peroxisome proliferator-activated receptor alpha. The data set is described as §1. The class given is functional, cell-based, HEK293.
Data set [6] concerns the target T3, Peroxisome proliferator-activated receptor alpha (Homo sapiens). Briefly: Intrinsic activity at PPAR alpha in human HEK cells at 1 uM by transactivation assay. The data set is classed as cell-based. As to conditions: HEK293.
Data set [7] can be described thus: Bile excretion of compound in bile duct-cannulated orally dosed Sprague-Dawley rat within 24 hrs. The data set is classed as ADME, organism-based. As to conditions: po, read-out: Activity.
Data set [8] in a line: Half life in Sprague-Dawley rat at 10 mg/kg, po after 96 hrs. Details: dose 10 mg/kg, route oral. The data set is classed as ADME, organism-based. Particulars: in vivo.
The nature of data set [9]: AUC (0 to T) in Sprague-Dawley rat at 10 mg/kg, po after 96 hrs. Details: time < 96 hr, dose 10 mg/kg, route oral. Particulars: plasma. The class given is ADME, organism-based.
Data set [10] in a line: Cmax in human at 10 mg, po after 192 hrs. The class given is ADME, organism-based. As to conditions: in vivo. Details: dose 10 mg, route oral.
Data set [11] is described as follows: Tmax in cynomolgus monkey at 1.9 mg/kg, po after 144 hrs. The class given is ADME, organism-based, Macaca fascicularis. Also on record: dose 1.9 mg/kg, route oral. Particulars: in vivo.
The nature of data set [12]: AUC (0 to T) in cynomolgus monkey at 1.9 mg/kg, po after 144 hrs. The class given is ADME, organism-based, Macaca fascicularis. Details: time < 144 hr, dose 1.9 mg/kg, route oral. Particulars: plasma.
Data set [13] can be described thus: AUC (0 to T) in human at 10 mg, po after 192 hrs. The class given is ADME, organism-based. Details: dose 10 mg, time < 192 hr, route oral. Particulars: plasma.
The nature of data set [14]: Tmax in Sprague-Dawley rat at 10 mg/kg, po after 96 hrs. Also on record: dose 10 mg/kg, route oral. As to conditions: in vivo. The class given is ADME, organism-based.
Data set [15] can be described thus: Half life in Beagle dog at 2 mg/kg, po after 12 hrs. The data set is classed as ADME, organism-based, Canis lupus familiaris. Also on record: dose 2 mg/kg, route oral. Particulars: in vivo.
Data set [16] in a line: Tmax in Beagle dog at 2 mg/kg, po after 12 hrs. The data set is classed as ADME, organism-based, Canis lupus familiaris. Also on record: dose 2 mg/kg, route oral. Particulars: in vivo.
Data set [17] in a line: AUC (0 to T) in Beagle dog at 2 mg/kg, po after 12 hrs. The data set is classed as ADME, organism-based, Canis lupus familiaris. Details: time < 12 hr, dose 2 mg/kg, route oral. Particulars: plasma.
Data set [18] can be described thus: Cmax in cynomolgus monkey at 1.9 mg/kg, po after 144 hrs. The data set is classed as ADME, organism-based, Macaca fascicularis. Details: dose 1.9 mg/kg, route oral. As to conditions: in vivo.
Data set [19] is described as follows: Cmax in Sprague-Dawley rat at 10 mg/kg, po after 96 hrs. Particulars: in vivo. The class given is ADME, organism-based. Details: dose 10 mg/kg, route oral.
Data set [20] is described as follows: Tmax in human at 10 mg, po after 192 hrs. The class given is ADME, organism-based. As to conditions: in vivo.
Data set [21] is described as follows: Half life in human at 10 mg, po after 192 hrs. The data set is classed as ADME, organism-based. As to conditions: in vivo.
Data set [22] can be described thus: Cmax in Beagle dog at 2 mg/kg, po after 12 hrs. As to conditions: in vivo. The class given is ADME, organism-based, Canis lupus familiaris. Details: dose 2 mg/kg, route oral.
Data set [23] is described as follows: Half life in cynomolgus monkey at 1.9 mg/kg, po after 144 hrs. The data set is classed as ADME, organism-based, Macaca fascicularis. Also on record: dose 1.9 mg/kg, route oral. Particulars: in vivo.

From ChEMBL document CHEMBL1147043, “Comparative metabolism of radiolabeled muraglitazar in animals and humans by quantitative and qualitative metabolite profiling” (Drug Metab Dispos, 2007) come the findings set out here.

For `COc1ccc(OC(=O)N(CC(=O)O)Cc2ccc(OCCc3nc(-c4ccc(O)cc4)oc3C)cc2)cc1`, the IC50 in [1] is 0.099 µM; in data set [3] it was 2.05 µM. In data set [2], the dose excreted at 48 h is less than 5%. Further, the %max in [4] came to 93%. The compound also yielded an EC50 in data set [5] of 0.26 µM. Moreover, in data set [6], the Intrinsic activity amounted to 78%.
On to `O=C(O)CN(Cc1ccc(OCCc2nc(-c3ccccc3)oc2CO)cc1)C(=O)Oc1ccc(O)cc1`, for which the IC50 in [1] and in data set [3] was more than 15 µM each time. Also, in [2], the dose excreted at 48 h is less than 5%. Also, the %max in data set [4] came out at 69%. In data set [5], this compound registered an EC50 of 18.1 µM. For the same compound, the Intrinsic activity in data set [6] came to 2%.
As to `Cc1oc(-c2ccccc2)nc1CC(O)Oc1ccc(CN(CC(=O)O)C(=O)Oc2ccc(O)cc2)cc1` (configuration not stated), the dose excreted at 48 h in data set [2] is less than 5%.
Take `Cc1oc(-c2ccccc2)nc1CCOc1ccc(CN(CC(=O)O)C(=O)Oc2ccc(O)cc2)cc1`: the IC50 in data set [1] is 3.74 µM; in data set [3], more than 15 µM. In addition, the dose excreted at 48 h in data set [2] was less than 5%. The compound also showed a %max in data set [4] of 78%. Also, the EC50 in [5] turned out to be 6.89 µM. Moreover, in data set [6], the Intrinsic activity is 6%. Further, the dose excreted at 24 h in data set [7] is 11%.
For the compound `COc1ccc(OC(=O)N(CC(=O)O)Cc2ccc(OC(O)Cc3nc(-c4ccccc4)oc3CO)cc2)cc1` (configuration not stated), in data set [2], the dose excreted at 48 h was less than 5%.
As to `Cc1oc(-c2ccccc2)nc1C(O)COc1ccc(CN(CC(=O)O)C(=O)Oc2ccc(O)cc2)cc1` (configuration not stated), the dose excreted at 48 h in data set [2] was less than 5%.
On the same count and under the same terms, with `COc1ccc(OC(=O)N(CC(=O)O)Cc2ccc(OCC(O)c3nc(-c4ccccc4)oc3CO)cc2)cc1` (configuration not stated) the figure was less than 5%; with `COc1ccc(OC(=O)N(CC(=O)O)Cc2ccc(OCCc3nc(-c4ccc(O)cc4)oc3CO)cc2)cc1`, less than 5%; with `Cc1oc(-c2ccc(O)cc2)nc1CCOc1ccc(CN(CC(=O)O)C(=O)Oc2ccc(O)cc2)cc1`, less than 5%.
Same read-out and setting: with `O=C(O)CN(Cc1ccc(O)cc1)C(=O)Oc1ccc(O)cc1` the figure was less than 5%; with `Cc1oc(-c2ccc(O[C@@H]3O[C@H](C(=O)O)[C@@H](O)[C@H](O)[C@H]3O)cc2)nc1CCOc1ccc(CN(CC(=O)O)C(=O)Oc2ccc(O)cc2)cc1`, less than 5%.
`COc1ccc(OC(=O)N(CC(=O)O)Cc2ccc(OCCC(=O)N(C(C)=O)C(=O)c3ccccc3)cc2)cc1`: the IC50 in [1] and in data set [3] was more than 15 µM each time. For the same compound, the dose excreted at 48 h in data set [2] was less than 5%. In [5], this compound came in with an EC50 of more than 25 µM.
For `COc1ccc(OC(=O)N(CC(=O)O)Cc2ccc(OCC(O)c3nc(-c4ccccc4)oc3C)cc2)cc1` (configuration not stated), the dose excreted at 48 h in [2] was less than 5%.
Consider `COc1ccc(OC(=O)N(CC(=O)O)Cc2ccc(OCCC(=O)NC(=O)c3ccccc3)cc2)cc1`, for which the IC50 in data set [1] and in data set [3] was more than 15 µM throughout. Also, the dose excreted at 48 h in data set [2] was less than 5%. This compound also came in with an EC50 in data set [5] of more than 25 µM.
For `COc1ccc(OC(=O)N(CC(=O)O)Cc2ccc(OC(O)Cc3nc(-c4ccc(O)cc4)oc3C)cc2)cc1` (configuration not stated), the dose excreted at 48 h in [2] is less than 5%.
As for `COc1ccc(OC(=O)N(CC(=O)O)Cc2ccc(OCCc3nc(-c4ccccc4)oc3CO)cc2)cc1`, the IC50 in data set [1] is 3.09 µM; in data set [3] it was more than 15 µM. The dose excreted at 48 h in data set [2] was less than 5%. Besides, in [4], the %max was found to be 88%. This compound also gave an EC50 in [5] of 1.94 µM. The Intrinsic activity in [6] was 24%.
Regarding `COc1ccc(OC(=O)N(CC(=O)O)Cc2ccc(O)cc2)cc1`, the IC50 in data set [1] and in [3] was more than 15 µM in each case. The dose excreted at 48 h in data set [2] is less than 5%. In addition, the EC50 in data set [5] is more than 25 µM.
Turning to `COc1ccc(OC(=O)N(CC(=O)O)Cc2ccc(OCCc3nc(-c4ccccc4)oc3C(=O)O)cc2)cc1`, the dose excreted at 48 h in [2] was less than 5%.
As to `COc1ccc(OC(=O)N(CC(=O)O)Cc2ccc(OCCc3nc(-c4ccccc4)oc3C)cc2)cc1`, the Intrinsic activity in data set [6] was determined as 120%.
As for `COc1ccc(OC(=O)N(CC(=O)O)Cc2ccc(OCCc3nc(-c4ccccc4)oc3C)cc2)cc1.Cl` [MURAGLITAZAR CHLORIDE], the half-life in data set [8] is 10.3 h; in [15], 5.7 h; in data set [21], 35.1 h; in data set [23] it was 18 h. The compound also came in with an AUC(0-t) at 96 h in data set [9] of 101000 ng·h/mL. For the same compound, the Cmax in [10] was 1800 ng/mL; in [18] it was 6900 ng/mL; in data set [19], 12800 ng/mL; in data set [22] it was 800 ng/mL. Further, the Tmax worked out at 1 h in data set [11], 0.5 h in [14], 0.5 h in [16] and 1 h in [20]. The compound further registered an AUC(0-t) at 144 h in data set [12] of 41000 ng·h/mL. Besides, the AUC(0-t) at 192 h in data set [13] was 12000 ng·h/mL. This compound also gave an IC50 in [1] of 0.188 µM. This compound registered an EC50 in data set [5] of 0.035 µM. Besides, the AUC(0-t) at 12 h in data set [17] turned out to be 1300 ng·h/mL.

As usually defined, the IC50 is the point on the concentration scale where inhibition reaches its midpoint. Usually EC50 stands for the concentration that produces a half-maximal response. As usually defined, the half-life is how long it takes for the measured level to halve. The AUC(0-t) is exposure summed from dosing to a finite time, without extrapolation to infinity. By Cmax is commonly meant the highest concentration seen after dosing. The Tmax is the time from dosing to the highest level.
